According to patent US20250090540A1, “PI3K-ALPHA INHIBITORS AND METHODS OF USE THEREOF” (Relay Therapeutics, Inc., priority 2021, published 2025):
Where two headings read alike, the source gives them in different places.

What was measured:
cells = conditions: Homo sapiens, MCF-10A, read-out: MCF10A I50
H1047R PIK3CA enzyme = H1047R PIK3CA enzyme (Homo sapiens, UniProt P42336, H1047R); test: ADP-Glo Biochemical PIK3CA Kinase Assay
[1] = ADP-Glo biochemical PIK3CA kinase assay

Chain of H1047R PIK3CA enzyme (P42336 whole entry H1047R): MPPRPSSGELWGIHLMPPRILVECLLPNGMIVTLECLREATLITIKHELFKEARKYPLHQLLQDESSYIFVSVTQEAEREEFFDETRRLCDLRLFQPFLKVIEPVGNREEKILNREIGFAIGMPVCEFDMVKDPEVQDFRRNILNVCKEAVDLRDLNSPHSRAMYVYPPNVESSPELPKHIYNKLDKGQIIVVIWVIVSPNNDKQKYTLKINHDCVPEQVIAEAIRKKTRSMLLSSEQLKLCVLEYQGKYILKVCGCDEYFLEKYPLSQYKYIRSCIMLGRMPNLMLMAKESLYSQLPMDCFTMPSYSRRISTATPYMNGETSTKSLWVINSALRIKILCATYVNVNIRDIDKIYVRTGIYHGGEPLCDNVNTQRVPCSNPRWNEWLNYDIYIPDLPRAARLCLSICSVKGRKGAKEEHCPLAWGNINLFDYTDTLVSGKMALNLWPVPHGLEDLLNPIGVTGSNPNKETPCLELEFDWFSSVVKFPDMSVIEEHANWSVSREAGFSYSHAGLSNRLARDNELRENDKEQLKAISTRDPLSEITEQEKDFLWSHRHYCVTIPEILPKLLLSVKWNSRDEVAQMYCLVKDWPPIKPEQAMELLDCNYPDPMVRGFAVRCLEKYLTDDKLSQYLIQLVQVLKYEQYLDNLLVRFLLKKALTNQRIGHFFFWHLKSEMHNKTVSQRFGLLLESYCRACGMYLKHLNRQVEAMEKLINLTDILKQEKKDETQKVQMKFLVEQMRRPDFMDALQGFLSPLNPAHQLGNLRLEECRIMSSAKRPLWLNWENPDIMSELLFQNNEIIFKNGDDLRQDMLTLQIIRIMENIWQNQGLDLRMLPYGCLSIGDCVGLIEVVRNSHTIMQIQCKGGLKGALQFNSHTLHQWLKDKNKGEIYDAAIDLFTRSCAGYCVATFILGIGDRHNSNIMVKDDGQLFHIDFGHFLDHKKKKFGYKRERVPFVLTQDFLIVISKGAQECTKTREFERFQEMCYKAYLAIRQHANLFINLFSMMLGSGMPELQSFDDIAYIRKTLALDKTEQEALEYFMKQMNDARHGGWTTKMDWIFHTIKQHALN
Chain of H1047R PIK3CA enzyme (P27986 whole entry partner): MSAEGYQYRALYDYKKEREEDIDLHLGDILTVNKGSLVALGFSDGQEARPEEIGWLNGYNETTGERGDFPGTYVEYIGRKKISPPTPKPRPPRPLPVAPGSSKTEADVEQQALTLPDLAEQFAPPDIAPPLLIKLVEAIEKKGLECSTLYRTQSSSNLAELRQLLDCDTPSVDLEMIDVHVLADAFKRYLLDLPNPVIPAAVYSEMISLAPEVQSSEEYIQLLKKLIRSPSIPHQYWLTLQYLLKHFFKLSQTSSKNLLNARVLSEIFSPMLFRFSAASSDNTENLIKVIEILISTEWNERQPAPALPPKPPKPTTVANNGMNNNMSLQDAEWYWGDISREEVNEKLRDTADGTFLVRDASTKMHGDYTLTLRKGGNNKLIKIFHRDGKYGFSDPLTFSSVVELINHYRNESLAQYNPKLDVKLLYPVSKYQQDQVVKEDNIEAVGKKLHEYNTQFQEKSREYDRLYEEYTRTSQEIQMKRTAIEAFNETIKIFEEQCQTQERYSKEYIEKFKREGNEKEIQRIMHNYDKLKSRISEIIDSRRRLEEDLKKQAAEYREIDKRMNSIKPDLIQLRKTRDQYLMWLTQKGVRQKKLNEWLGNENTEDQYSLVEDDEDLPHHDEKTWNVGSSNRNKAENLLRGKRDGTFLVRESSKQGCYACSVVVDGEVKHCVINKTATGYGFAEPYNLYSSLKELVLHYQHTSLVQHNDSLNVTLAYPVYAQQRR

Row | SMILES | IC50 (cells) [µM] | IC50 (H1047R PIK3CA enzyme) [µM] | IC50 (H1047R PIK3CA enzyme; [1]) [µM]
1 | O=C(NCc1nccs1)c1cnc(N2CCCc3ccccc32)c(NC(=O)c2csc3ccccc23)c1 [I-181] | 10 to 36 | 0.1 to 0.5 | 
2 | Cc1ccccc1Nc1ncc(C(=O)N2CC(C#N)C2)cc1NC(=O)c1csc2ccccc12 [I-533] | 10 to 36 |  | 1 to 10
3 | Cc1ccccc1Nc1ncc(C(=O)NCC2(C#N)CC2)cc1NC(=O)c1cc(F)cc(C(F)(F)F)c1 [I-750] | 5 to 10 |  | 0.1 to 0.5
4 | O=C(NCc1nccs1)c1cnc(N2CCCc3ccccc32)c(NC(=O)c2cc(F)cc(C(F)(F)F)c2)c1 [I-209] | 10 to 36 | 0.5 to 1 | 
5 | CNC(=O)c1cnc(Nc2ccc(C#N)cc2)c(NC(=O)c2cc(F)cc(C(F)(F)F)c2)c1 [I-295] | 36 to 100 | 1 to 10 | 
6 | Cc1ccccc1Nc1ncncc1NC(=O)c1csc2ccccc12 [I-413] | 10 to 36 |  | 1 to 10
7 | Cc1ccccc1Nc1ncc(C(=O)NC(C)c2nnc3ccccn23)cc1NC(=O)c1csc2ccccc12 (stereo not drawn) [I-616] | 1 to 5 |  | ≤ 0.1
8 | CNC(=O)c1cnc(Nc2cc(CO)ccc2Cl)c(NC(=O)c2cc(F)cc(C(F)(F)F)c2)c1 [I-809] | 1 to 5 | 0.1 to 0.5 | 
9 | CNC(=O)c1cnc(Nc2ccccc2C)c(NC(=O)c2csc3c2CCOC3)c1 [I-402] | 10 to 36 |  | 1 to 10
10 | CCOc1ccccc1Nc1ncc(C(=O)NC)cc1NC(=O)c1cc(F)cc(C(F)(F)F)c1 [I-288] | 36 to 100 | 10 to 100 | 
11 | Cc1ccccc1Nc1ncc(C(=O)NCC(O)C2CCCC2)cc1NC(=O)c1csc2ccccc12 (stereo not drawn) [I-610] | 10 to 36 |  | 0.1 to 0.5
12 | CNC(=O)c1cnc(Nc2cccc(C(F)(F)F)c2)c(NC(=O)c2cc(F)cc(C(F)(F)F)c2)c1 [I-292] | 10 to 36 | 1 to 10 | 
13 | Cc1ccccc1Nc1cc(=O)n(Cc2ccccc2C#N)cc1NC(=O)c1csc2ccccc12 [I-279] | 10 to 36 | 0.1 to 0.5 | 
14 | O=C(Nc1cc(C(=O)N[C@H]2C[C@H](O)C2)cnc1Nc1ccccc1)c1cc(F)cc(C(F)(F)F)c1 [I-396] | 1 to 5 | 0.1 to 0.5 | 
15 | O=C(NC1CS(=O)(=O)C1)c1cnc(N2CCCc3ccccc32)c(NC(=O)c2csc3ccccc23)c1 [I-180] | 10 to 36 | 0.1 to 0.5 | 
16 | Cc1ccccc1Nc1ncc(C(=O)NCc2cccnc2)cc1NC(=O)c1csc2ccccc12 [I-193] | 5 to 10 | 0.1 to 0.5 | 
17 | CC(=O)N1CC(NC(=O)c2cnc(N3CCOc4ccccc43)c(NC(=O)c3cc(F)cc(C(F)(F)F)c3)c2)C1 [I-329] | 10 to 36 | 0.5 to 1 | 
18 | CC(C)(O)c1cnc(Nc2cc(F)ccc2Cl)c(NC(=O)c2nsc3ccccc23)c1 [I-783] | 5 to 10 |  | 0.1 to 0.5
19 | Cc1ccccc1Nc1ncc(C(=O)NCc2cnc3c(C)cccn23)cc1NC(=O)c1csc2ccccc12 [I-561] | 10 to 36 |  | 0.1 to 0.5

Row | SMILES | IC50 (cells) [µM] | IC50 (H1047R PIK3CA enzyme) [µM] | IC50 (H1047R PIK3CA enzyme; [1]) [µM]
20 | CNC(=O)c1cnc(Nc2ccccc2Cl)c(NC(=O)c2cc(F)cc(C(F)(F)F)c2)c1 [I-293] | 1 to 5 | 0.1 to 0.5 | 
21 | Cc1ccccc1Nc1ncc(C(=O)NC2C[S+]([O-])C2)cc1NC(=O)c1nsc2ccccc12 (stereo not drawn) [I-331] | 1 to 5 | 0.1 to 0.5 | 
22 | Cc1ccccc1Nc1ncc(C(=O)NCC2CCOCC2)cc1NC(=O)c1csc2ccccc12 [I-198] | 10 to 36 | 0.1 to 0.5 | 
23 | CNC(=O)c1cnc(Nc2ccccc2C)c(NC(=O)c2cc3c(Cl)ccnc3[nH]2)c1 [I-424] | 36 to 100 |  | 10 to 100
24 | COc1cncc(CNC(=O)c2cnc(Nc3ccccc3C)c(NC(=O)c3csc4ccccc34)c2)c1 [I-199] | 10 to 36 | 0.1 to 0.5 | 
25 | CNC(=O)c1cnc(Nc2ncco2)c(NC(=O)c2cc(F)cc(C(F)(F)F)c2)c1 [I-291] | 36 to 100 | 10 to 100 | 
26 | CNC(=O)c1cnc(Nc2ccccc2C)c(NC(=O)c2cc3c(Br)cccn3c2)c1 [I-486] | 10 to 36 |  | 0.1 to 0.5
27 | CNC(=O)c1cnc(Nc2cccc3ccn(C)c23)c(NC(=O)c2csc3ccccc23)c1 [I-680] | 10 to 36 |  | 1 to 10
28 | Cc1ccccc1Nc1ncc(C(=O)N2CC(O)C2)cc1NC(=O)c1csc2ccccc12 [I-613] | 10 to 36 |  | 0.1 to 0.5
29 | Cc1ccccc1Nc1ncc(C(=O)NCC2(S(C)(=O)=O)CCC2)cc1NC(=O)c1csc2ccccc12 [I-608] | 10 to 36 |  | 0.5 to 1
30 | CNC(=O)c1cnc(Nc2ccc(F)cc2)c(NC(=O)c2cc(F)cc(C(F)(F)F)c2)c1 [I-285] | 10 to 36 | 0.5 to 1 | 
31 | Cc1ccccc1Nc1ncc(C(=O)N2CCn3nccc32)cc1NC(=O)c1csc2ccccc12 [I-627] | 10 to 36 |  | 1 to 10
32 | Cc1ccccc1Nc1ncc(C(=O)N[C@@H]2CC(=O)N(C)C2)cc1NC(=O)c1csc2ccccc12 (racemic) [I-326] | 5 to 10 | 0.1 to 0.5 | 
33 | CNC(=O)c1cnc(Nc2cccc(F)c2OC)c(NC(=O)c2cc(F)cc(C(F)(F)F)c2)c1 [I-303] | 36 to 100 | 1 to 10 | 
34 | Cc1ccccc1Nc1ncc(C(=O)NCC2CCNC(=O)C2)cc1NC(=O)c1csc2ccccc12 (stereo not drawn) [I-569] | 10 to 36 |  | 0.1 to 0.5
35 | Cc1ccccc1Nc1ncc(C(=O)NCC2(O)CCOC2)cc1NC(=O)c1csc2ccccc12 (stereo not drawn) [I-583] | 10 to 36 |  | 0.5 to 1
36 | COC(=O)Cn1cc(NC(=O)c2csc3ccccc23)c(Nc2ccccc2C)cc1=O [I-309] | 36 to 100 | 1 to 10 | 
37 | Cc1ccccc1Nc1ncc(C(=O)NC2(C(N)=O)CC2)cc1NC(=O)c1csc2ccccc12 [I-612] | < 1 |  | 0.1 to 0.5
38 | Cc1ccccc1Nc1ncc(C(C)(C)O)cc1NC(=O)c1cc(F)cc(C(F)(F)F)c1 [I-42] | 10 to 36 | 1 to 10 | 

Row | SMILES | IC50 (cells) [µM] | IC50 (H1047R PIK3CA enzyme) [µM] | IC50 (H1047R PIK3CA enzyme; [1]) [µM]
39 | CNC(=O)[C@H]1C[C@@H](NC(=O)c2cnc(Nc3ccccc3C)c(NC(=O)c3csc4ccccc34)c2)C1 [I-692] | 10 to 36 |  | 0.1 to 0.5
40 | Cc1ccccc1Nc1cccnc1NC(=O)c1csc2ccccc12 [I-635] | 36 to 100 |  | 0.1 to 0.5
41 | Cc1ccn2c(CNC(=O)c3cnc(Nc4ccccc4C)c(NC(=O)c4csc5ccccc45)c3)nnc2c1 [I-625] | 10 to 36 |  | 0.1 to 0.5
42 | Cc1ccccc1Nc1ncc(C(=O)NCc2cn(C)nc2C)cc1NC(=O)c1csc2ccccc12 [I-601] | 5 to 10 |  | ≤ 0.1
43 | CNC(=O)c1cnc(Nc2ccccc2C)c(NC(=O)c2csc3ccc(Cl)cc23)c1 [I-149] | 10 to 36 | 0.1 to 0.5 | 
44 | Cc1ccccc1Nc1ncc(-c2ccc(O)cc2)cc1NC(=O)c1cc(F)cc(C(F)(F)F)c1 [I-82] | 10 to 36 | 0.5 to 1 | 
45 | Cc1ccccc1Nc1ncc(C(=O)NCc2cnn(C(C)C)c2)cc1NC(=O)c1csc2ccccc12 [I-532] | 10 to 36 |  | 0.1 to 0.5
46 | CNC(=O)c1cnc(Nc2ncccc2OC)c(NC(=O)c2csc3ccccc23)c1 [I-405] | 36 to 100 |  | 10 to 100
47 | CNC(=O)c1cc(F)c(Nc2ccccc2C)c(NC(=O)c2csc3ccccc23)c1 [I-773] | < 1 |  | ≤ 0.1
48 | COc1ncc(-c2cnc(Nc3ccccc3C)c(NC(=O)c3cc(F)cc(C(F)(F)F)c3)c2)cn1 [I-57] | 1 to 5 | 0.5 to 1 | 
49 | Cc1ccccc1Nc1ncc(C(=O)Nc2cccnn2)cc1NC(=O)c1csc2ccccc12 [I-496] | 10 to 36 |  | 0.5 to 1
50 | Cc1ccccc1Nc1ncc(C(=O)Nc2ccnnc2)cc1NC(=O)c1cc(F)cc(C(F)(F)F)c1 [I-240] | < 1 | 0.1 to 0.5 | 
51 | Cc1ccccc1Nc1ncc(C2CC2)cc1NC(=O)c1cc(F)cc(C(F)(F)F)c1 [I-21] | 10 to 36 | 1 to 10 | 
52 | Cc1ccccc1Nc1ncc(C(=O)NC2CCC(F)(F)C2)cc1NC(=O)c1csc2ccccc12 (stereo not drawn) [I-544] | 10 to 36 |  | 0.1 to 0.5
53 | Cc1ccccc1Nc1ncc(C(=O)N[C@@H]2CCO[C@@H]2C)cc1NC(=O)c1csc2ccccc12 [I-594] | 5 to 10 |  | 0.1 to 0.5
54 | Cc1ccccc1Nc1ncc(C(=O)NCc2ccnn2C)cc1NC(=O)c1csc2ccccc12 [I-135] | 1 to 5 | 0.1 to 0.5 | 
55 | C[C@@H](NC(=O)c1cnc(N2CCOc3ccccc32)c(NC(=O)c2csc3ccccc23)c1)c1cccnc1 (stereo in doubt) [I-257] | 5 to 10 | ≤ 0.1 | 
56 | O=C(NCCN1CCOCC1)c1cnc(N2CCOc3ccccc32)c(NC(=O)c2csc3ccccc23)c1 [I-316] | 36 to 100 | 1 to 10 | 
57 | Cc1ccccc1Nc1ncc(C(=O)N[C@H]2C[C@@H](O)C2)cc1NC(=O)c1cc(F)cc(C(F)(F)F)c1 [I-395] | 1 to 5 | 0.1 to 0.5 | 
